Data on four compounds can be found in patent US20130096116A1, “TREATMENT OF PHARMACOLOGICAL-INDUCED HYPOCHLORHYDRIA” (Genentech, Inc., priority 2011, published 2013).

The nature of data set [1]: Effect of rabeprazole on pharmacokinetics of GDC-0941 in patients with advanced solid tumors. To be noted: cancer patients pretreated with rabeprazole 20 mg Days 4-8, Day 8 vs Day 1. In kind it is in vivo.
Data set [2] can be described thus: Oral exposure of GDC-0941 in dogs with famotidine, pentagastrin or betaine HCl pretreatment. Particulars: male, beagle, dog, plasma, 40 mg, 40 mg oral. Type of data set: in vivo. The method, then: Group 2 dogs were pretreated with famotidine 40 mg tablet to induce hypochlorhydria and as a negative control. Group 3 dogs were pretreated with pentagastrin by intramuscular injection 6 mg/kg. Pentagastrin is a synthetic peptide which stimulates the secretion of […], pepsin, and intrinsic factor, and lowers the pH of the gut through physiologic stimulation of acid secretion. […] Group 5 dogs were pretreated with famotidine, then treated with betaine HCl, 2×750 mg tablets.
(§1) Group 1: no pretreatment (control)

The conditions of data set [3]: media with enough betaine HCl to lower the pH to 2.4 or below.
The nature of data set [4]: pH solubility profile of GDC-0941 (shake flask method). In kind it is physicochemical. Particulars: 50 mM USP buffer, aqueous buffer, thermodynamic from solid, 48 hours at 37° C. How it is done:
The solubility test was conducted using the shake flask method. […] Each sample was prepared at a volume of approximately 2 mL, with excess solid in each sample. […] Samples were then filtered and concentrations were determined by HPLC under reversed-phase conditions using a C18 column, and elution with a phosphate buffer (pH 6.5), acetonitrile gradient. The injection volume was 5 μL, with a flow rate of 1.2 mL/min and detection at 230 nm.

Data set [5] is described as follows: Oral exposure of dasatinib and gastric pH in dogs with famotidine, pentagastrin or betaine HCl pretreatment. In kind it is in vivo, beagle dogs. How it is done:
Dogs were treated with dasatinib 50 mg tablet (Example 5). Dogs in each group received the following pretreatment: Group 1: no pretreatment (control); Group 2: famotidine 40 mg tablet orally, 3 hours prior to dasatinib; Group 3: pentagastrin by intramuscular injection (6 mg/kg) 30 min before dasatinib administration; Groups 4 and 5: Two betaine HCl 750 mg tablets were administered to the two groups as follows: one betaine HCl tablet orally 5 min before dasatinib and the other 20 min before dasatinib Group 5 was also treated with famotidine 40 mg tablet orally, 3 hours prior to dasatinib. […] Betaine HCl performs as well as pentagastrin, and improves dasatinib/famotidine exposure (AUC, FIG. 5C).
Dasatinib pharmacokinetics was evaluated in dogs with famotidine-induced hypochlorhydria (FIG. 5A). Dasatinib was administered as a 50 mg SPRYCEL® (Bristol-Myers Squibb) tablet. Famotidine 40 mg tablets were administered 3 hrs before dasatinib. Pentagastrin injection was administered intramuscularly 30 min prior before dasatinib administration. Two betaine HCl 750 mg tablets administered at the following times: 1 orally 20 min and 5 min prior to dasatinib administration.
Five groups of naïve, male beagle dogs (n=4 per group) each received a different pretreatment prior to dasatinib treatment.
as §1
Group 2: famotidine 40 mg tablet orally, 3 hours prior to dasatinib
Group 3: pentagastrin by intramuscular injection (6 mg/kg) 30 min before dasatinib administration
Groups 4 and 5: Two betaine HCl 750 mg tablets were administered to the two groups as follows: one betaine HCl tablet orally 5 min before dasatinib and the other 20 min before dasatinib
Group 5: famotidine 40 mg tablet orally, 3 hours prior to dasatinib.

The subject of data set [6] is gastric pH. Put plainly: Gastric pH (Heidelberg capsule) after betaine HCl in healthy volunteers with rabeprazole-induced hypochlorhydria. Type of data set: in vivo. How it is done:
The pH of the stomach was measured over time with a Heidelberg capsule with tether swallowed at t=0. […] Onset of effect of betaine HCl was rapid, with a mean time to pH<3 of 6.3 (±4.3) min, and its duration was adequate but temporary, with a gastric pH<3 and <4 lasting 72.5 (±32.9) and 76.8 (±30.4) min, respectively.
Dasatinib pharmacokinetics was evaluated in healthy volunteer subjects with rabeprazole-induced hypochlorhydria by dosing 20 mg oral rabeprazole twice daily for 4 days. On the morning (a.m.) of study day 5, subjects received an additional 20 mg oral rabeprazole, and the Heidelberg Capsule pH diagnostic system (HC) was used for continuous gastric pH monitoring. When gastric pH remained >4 for at least 15 min, a 1500 mg dose of betaine HCl was given orally, and gastric pH was monitored for 2 h. During part 2 of this study a 3-period crossover study, five of ten subjects each received: (A) 100 mg dasatinib (Control); (B) 100 mg dasatinib after rabeprazole pre-treatment; (C) 100 mg dasatinib, 1500 mg betaine HCl, after rabeprazole pre-treatment. For treatments B+C, 20 mg rabeprazole twice daily was given for 3 days prior to and on the a.m. of each study day. Gastric pH was monitored and DAS plasma concentrations were measured over 22 h (see study schematic below) with dasatinib concentration versus time results shown in FIG. 8A and exposure (AUC) in FIG. 8B.

For data set [7] the following is noted: 100 mg dasatinib after 40 mg omeprazole daily for 4 days; cited from earlier work.
For data set [8] the following is noted: cited from earlier work.
For data set [9] the following is noted: cited from earlier work. The source holds these as a separate data set.
For data set [10] the following is noted: cited from earlier work. The source holds these as a separate data set.
For data set [11] the following is noted: cited from earlier work. The source holds these as a separate data set.
The mark [12] stands for this setting: single 50-mg dose 10 hours following 40 mg of famotidine.

In brackets after ≈: the same amount, converted by molar mass. Structures can show the parent of a compound that is named as a salt. Where two headings read alike, the source gives them in different places.

In the case of `CS(=O)(=O)N1CCN(Cc2cc3nc(-c4cccc5[nH]ncc45)nc(N4CCOCC4)c3s2)CC1` [GDC-0941, 4-(2-(1H-indazol-4-yl)-6-((4-(methylsulfonyl)piperazin-1-yl)methyl)thieno[3,2-d]pyrimidin-4-yl)morpholine], in data set [1], the “decrease of GDC-0941 (AUC, FIG. 7)” value is 40%. Besides, the AUC in data set [2] (Group 4 (betaine HCl only pretreatment)) stood at 7.38 µM·h; in data set [2] (Group 5 (famotidine+betaine HCl), excluding animal D501 (n=3)), 7.12 µM·h. The “drug rapidly dissolved and maintained in solution” value in data set [3] is recorded as “greater than 90%”. Besides, the solubility at 48 h in data set [4] (all tested pH values above pH 4.4, read-out: measured solubility) was approximately 1 µg/mL (≈ 1.95 µM); in data set [4] (pH 1.0, read-out: solubility) it was approximately 800 µg/mL (≈ 1560 µM); in data set [4] (pH 3.0, read-out: solubility), approximately 8 µg/mL (≈ 15.6 µM); in data set [4] (pH 7.5, read-out: solubility) it was less than 1 µg/mL.
`C[N+](C)(C)CC(=O)O` [betaine HCl, Betaine hydrochloride]: in data set [5] (dogs treated with famotidine+betaine HCl), the “effect on gastric pH” value is reported as “reversal of hypochlorhydria”. Moreover, the “lowering of gastric pH” value in [6] (30 min interval after dosing 1500 mg, N=6) is 4.54 (±0.46) units. For the same compound, in data set [6] (after 1500 mg betaine HCl), the “duration of gastric pH<3” value is given as 72.5 (±32.9) min, the “duration of gastric pH<4” value is 76.8 (±30.4) min and the “mean time to pH<3” value is 6.3 (±4.3) min.
In the case of `Cc1nc(Nc2ncc(C(=O)Nc3c(C)cccc3Cl)s2)cc(N2CCN(CCO)CC2)n1` [dasatinib, Dasatinib], in data set [7], the “decrease of AUCinf” value was 43%, the “decrease of Cmax” value is reported as 42% and the reduction of bioavailability was approximately 40%. In [8] (pH 2.6, 24° C.), the solubility was approximately 18000 µg/mL (≈ 36900 µM). The solubility in data set [8] (pH 4.0, 24° C.) was approximately 690 µg/mL (≈ 1410 µM). The solubility in data set [8] (pH 4.28, 24° C.) was 205 µg/mL (≈ 420 µM). Also, the solubility in [8] (pH 7.0, 24° C.) was less than 1 µg/mL. Also, the “solubility of highest commercial dose strength (140 mg) in 250 mL of water” value in [8] (pH range of 4.3 to 7.0 at 24° C.) is given as “not soluble”. Moreover, in data set [9] (high fat meal), the “increase in AUCinf” value was 14%. In [9] (low fat meal), the “increase in AUCinf” value is recorded as 21%. Further, the dasatinib levels result in [5] (dogs, dasatinib+famotidine without betaine HCl, 50 mg tablet) was “at or below the limits of assay detection”. Further, the exposure result in [10] (Maalox 30 mL administered 2 hours prior to dasatinib) is listed as “unchanged”. The “reduction of bioavailability (AUC)” value in data set [10] (dasatinib 50 mg BID, famotidine 40 mg 10 hours prior) is on record as 61%. Moreover, in data set [10] (setting [12]), the “reduction of AUC0-12” value is approximately 60% and the “reduction of Cmax” value is on record as approximately 60%. Also, in data set [11] (in vivo), the “between-subject variability in Ka” value was “exceeded 100%”, the “between-subject variability in relative bioavailability (FR)” value is 33% and the “inter-occasion variability (IOV) within a subject in FR” value is reported as 44%. The “decrease of FR with use of PPI” value in data set [11] (not statistically significant) is listed as 17%.
For the compound `NC(N)=Nc1nc(CSCCC(N)=NS(N)(=O)=O)cs1` [famotidine], the “effect on gastric pH” value in [5] (dogs pretreated with famotidine 40 mg) is given as “significant hypochlorhydria (increased gastric pH)”.

As usually defined, the AUC is concentration integrated over time. Usually solubility stands for the dissolved amount per volume that the medium holds.
